Laboratory results as given in Sander's compilation of Henry's law constants (doi:10.1016/s0378-3812(02)00087-0).

Assay: Henry solubility constant Hcp at 303 K (mol/(m3 Pa))
Conditions: reference: Hovorka et al. (2002)

Row | SMILES | Henry solubility constant Hcp at 303 K
1 | CCOCCOC(C)=O [2-ethoxyethyl ethanoate] | 3
2 | COCCOC(C)=O [2-methoxyethyl ethanoate] | 3
3 | C=CC#N [2-propenenitrile] | 0.076
4 | COC(=O)CC(C)=O [3-oxobutanoic acid, methyl ester] | 6.4
5 | COCC(=O)OC [methyl methoxyacetate] | 2.5

Assay: Henry solubility constant Hcp at 298.15 K (mol/(m3 Pa))
Conditions: reference: Hovorka et al. (2002)

Row | Henry solubility constant Hcp | SMILES
6 | 0.67 | CC(C)CO [2-methyl-1-propanol]
7 | 0.86 | O=C1CCCCC1 [cyclohexanone]
8 | 2.2 | OC1CCCC1 [cyclopentanol]
9 | 0.82 | O=C1CCCC1 [cyclopentanone]
10 | 0.32 | CC#N [ethanenitrile]
11 | 0.083 | COC(C)=O [methyl ethanoate]
